Data on 29 compounds can be found in patent publication US12208088B2 (Genentech, Inc., priority 2018, dated 2025).

The test has as its target HPK1 (Homo sapiens (Human), UniProt Q92918). The experiment in a line: HPK1 Lantha binding assay ("Lanth"). The settings on record: binding assays; Morrison Ki fit. The method, boiled down: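 Ki values are from Morrison-equation fitting of 665/615 nm TR-FRET signals, taking enzyme level, tracer level and tracer Kd into account. The assay mix held HPK1 (2 nM), Eu-anti-GST antibody (2 nM) and Tracer222 (15 nM). Incubations were two 1 h steps at 23 °C, on 5-fold serial compound dilutions.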

HPK1, sequence (Q92918 1-346 limits assumed): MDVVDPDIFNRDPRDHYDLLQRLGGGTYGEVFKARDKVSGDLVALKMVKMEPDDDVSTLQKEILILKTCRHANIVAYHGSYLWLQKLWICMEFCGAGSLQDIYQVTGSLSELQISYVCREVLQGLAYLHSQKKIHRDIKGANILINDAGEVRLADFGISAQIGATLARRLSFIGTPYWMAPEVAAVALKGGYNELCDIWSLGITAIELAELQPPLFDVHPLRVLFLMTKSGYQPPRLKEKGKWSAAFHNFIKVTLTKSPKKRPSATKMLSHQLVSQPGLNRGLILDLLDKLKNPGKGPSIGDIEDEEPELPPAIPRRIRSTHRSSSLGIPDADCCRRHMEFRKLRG

Compound `CN(C)C(=O)c1c(N)ccc(-c2cnc3c(c2Cl)[C@]2(CC[C@H](CO)CC2)CN3)c1F` [Compound 248a, 6-Amino-3-((1s,4s)-4′-chloro-4-(hydroxymethyl)-1′,2′-dihydrospiro[cyclohexane-1,3′-pyrrolo[2,3-b]pyridin]-5′-yl)-2-fluoro-N,N-dimethylbenzamide] yielded a Ki of 0.00601 µM. In other words, the single-digit nanomolar range. Take `CN(C)C(=O)c1c(N)ccc(-c2cnc3c(c2Cl)[C@]2(CC[C@@H](CO)CC2)CN3)c1F` [Compound 248b, 6-Amino-3-((1r,4r)-4′-chloro-4-(hydroxymethyl)-1′,2′-dihydrospiro[cyclohexane-1,3′-pyrrolo[2,3-b]pyridin]-5′-yl)-2-fluoro-N,N-dimethylbenzamide]: affinity was put at a Ki of 0.00489 µM. Compound `Cc1c(CC#N)ccnc1-c1cccc(-c2cnc3c(c2Cl)C2(CC=CC2)CN3)c1` [Compound 249, 2-(2-(3-(4′-Chloro-1′,2′-dihydrospiro[cyclopentane-1,3′-pyrrolo[2,3-b]pyridin]-3-en-5′-yl)phenyl)-3-methylpyridin-4-yl)acetonitrile] came in with an inhibition constant (Ki) of 0.0043 µM. The same measure for `CN(C)C(=O)c1c(N)ccc(-c2cnc3c(c2Cl)[C@]2(CC[C@@](C)(C#N)CC2)CN3)c1F` [Compound 250b, 6-Amino-3-((1r,4r)-4′-chloro-4-cyano-4-methyl-1′,2′-dihydrospiro[cyclohexane-1,3′-pyrrolo[2,3-b]pyridin]-5′-yl)-2-fluoro-N,N-dimethylbenzamide]: 0.0413 µM; for `Cc1c(CC#N)ccnc1-c1cccc(-c2cnc3c(c2)C2(CC2)CN3)c1F` [Compound 251, 2-(2-(3-(1′,2′-Dihydrospiro[cyclopropane-1,3′-pyrrolo[2,3-b]pyridin]-5′-yl)-2-fluorophenyl)-3-methylpyridin-4-yl)acetonitrile]: 0.00315 µM; for `Cc1c(CC#N)ccnc1-c1cccc(-c2cnc3c(c2Cl)C2(CC=CC2)CN3)c1F` [Compound 252, 2-(2-(3-(4′-Chloro-1′,2′-dihydrospiro[cyclopentane-1,3′-pyrrolo[2,3-b]pyridin]-3-en-5′-yl)-2-fluorophenyl)-3-methylpyridin-4-yl)acetonitrile]: 0.00594 µM. Compound `CN(C)C(=O)c1c(N)ccc(-c2cnc3c(c2Cl)[C@]2(CC[C@H](C(C)(C)O)CC2)CN3)c1F` [Compound 255a, 6-Amino-3-((1s,4s)-4′-chloro-4-(2-hydroxypropan-2-yl)-1′,2′-dihydrospiro[cyclohexane-1,3′-pyrrolo[2,3-b]pyridin]-5′-yl)-2-fluoro-N,N-dimethylbenzamide] had a Ki of 0.0199 µM. `CN(C)C(=O)c1c(N)ccc(-c2cnc3c(c2Cl)[C@]2(CC[C@@H](C(C)(C)O)CC2)CN3)c1F` [Compound 255b, 6-Amino-3-((1r,4r)-4′-chloro-4-(2-hydroxypropan-2-yl)-1′,2′-dihydrospiro[cyclohexane-1,3′-pyrrolo[2,3-b]pyridin]-5′-yl)-2-fluoro-N,N-dimethylbenzamide] registered an inhibition constant Ki of 0.012 µM. In the case of `CN(C)C(=O)c1c(N)ccc(-c2cnc3c(c2Cl)[C@]2(CC[C@@](C)(CO)CC2)CN3)c1F` [Compound 256a, 6-Amino-3-((1r,4r)-4′-chloro-4-(hydroxymethyl)-4-methyl-1′,2′-dihydrospiro[cyclohexane-1,3′-pyrrolo[2,3-b]pyridin]-5′-yl)-2-fluoro-N,N-dimethylbenzamide], the Ki was found to be 0.0111 µM. The result for `Cc1cc(CC#N)nn1-c1cccc(-c2cnc3c(c2Cl)C2(CC=CC2)CN3)c1` [Compound 257, 2-(1-(3-(4′-Chloro-1′,2′-dihydrospiro[cyclopentane-1,3′-pyrrolo[2,3-b]pyridin]-3-en-5′-yl)phenyl)-5-methyl-1H-pyrazol-3-yl)acetonitrile] reads 0.0532 µM; that for `CN(C)C(=O)c1c(N)ccc(-c2cnc3c(c2Cl)[C@]2(CC[C@@H](CN)CC2)CN3)c1F` [Compound 258a, 6-Amino-3-((1r,4r)-4-(aminomethyl)-4′-chloro-1′,2′-dihydrospiro[cyclohexane-1,3′-pyrrolo[2,3-b]pyridin]-5′-yl)-2-fluoro-N,N-dimethylbenzamide], 0.19 µM; that for `CN(C)C(=O)c1c(N)ccc(-c2cnc3c(c2Cl)[C@]2(CC[C@H](CN)CC2)CN3)c1F` [Compound 258b, 6-Amino-3-((1s,4s)-4-(aminomethyl)-4′-chloro-1′,2′-dihydrospiro[cyclohexane-1,3′-pyrrolo[2,3-b]pyridin]-5′-yl)-2-fluoro-N,N-dimethylbenzamide], 0.15 µM.

In the case of `CN(Cc1cnn(C2CCNC2)c1)C(=O)c1cccc(-c2cnc3c(c2Cl)C2(CC=CC2)CN3)c1F` (centres unmarked) [Compound 260, 3-(4′-Chloro-1′,2′-dihydrospiro[cyclopentane-1,3′-pyrrolo[2,3-b]pyridin]-3-en-5′-yl)-2-fluoro-N-methyl-N-((1-(pyrrolidin-3-yl)-1H-pyrazol-4-yl)methyl)benzamide], affinity was put at a Ki of 0.038 µM.

Consider `CN(Cc1cnn(CCO)c1)C(=O)c1cccc(-c2cnc3c(c2Cl)C2(CC=CC2)CN3)c1F` [Compound 262, 3-(4′-Chloro-1′,2′-dihydrospiro[cyclopentane-1,3′-pyrrolo[2,3-b]pyridin]-3-en-5′-yl)-2-fluoro-N-((1-(2-hydroxyethyl)-1H-pyrazol-4-yl)methyl)-N-methylbenzamide], for which the Ki came to 0.012 µM. This Ki is about 3.2-fold lower than that of the compound before. `CN(C)C(=O)C1(c2cccc(-c3cnc4c(c3Cl)C3(CC=CC3)CN4)c2)CC1` [Compound 263, 1-(3-(4′-Chloro-1′,2′-dihydrospiro[cyclopentane-1,3′-pyrrolo[2,3-b]pyridin]-3-en-5′-yl)phenyl)-N,N-dimethylcyclopropane-1-carboxamide] gave an inhibition constant (Ki) of 0.283 µM. The result for `NC(=O)C1(c2cccc(-c3cnc4c(c3Cl)C3(CC=CC3)CN4)c2F)CC1` [Compound 265, 1-(3-(4′-Chloro-1′,2′-dihydrospiro[cyclopentane-1,3′-pyrrolo[2,3-b]pyridin]-3-en-5′-yl)-2-fluorophenyl)cyclopropane-1-carboxamide] reads 0.108 µM; that for `O=C(N1CCOCC1)C1(c2cccc(-c3cnc4c(c3Cl)C3(CC=CC3)CN4)c2)CC1` [Compound 268, (1-(3-(4′-Chloro-1′,2′-dihydrospiro[cyclopentane-1,3′-pyrrolo[2,3-b]pyridin]-3-en-5′-yl)phenyl)cyclopropyl)(morpholino)methanone], 0.484 µM.

The compound `N#CCNC(=O)c1ccnc(-c2cccc(-c3cnc4c(c3Cl)C3(CC=CC3)CN4)c2F)c1` [Compound 269, 2-(3-(4′-Chloro-1′,2′-dihydrospiro[cyclopentane-1,3′-pyrrolo[2,3-b]pyridin]-3-en-5′-yl)-2-fluorophenyl)-N-(cyanomethyl)isonicotinamide] gave a Ki of 0.191 µM. Take `CN(CC#N)C(=O)C1(c2cccc(-c3cnc4c(c3Cl)C3(CC=CC3)CN4)c2)CC1` [Compound 270, 1-(3-(4′-Chloro-1′,2′-dihydrospiro[cyclopentane-1,3′-pyrrolo[2,3-b]pyridin]-3-en-5′-yl)phenyl)-N-(cyanomethyl)-N-methylcyclopropane-1-carboxamide]: the Ki amounted to 0.331 µM. In turn, `CN(C)C(=O)c1c(N)ccc(-c2cnc3c(c2Cl)[C@]2(CC[C@@H](S(C)(=O)=O)CC2)CN3)c1F` [Compound 273a, 6-Amino-3-((1r,4r)-4′-chloro-4-(methylsulfonyl)-1′,2′-dihydrospiro[cyclohexane-1,3′-pyrrolo[2,3-b]pyridin]-5′-yl)-2-fluoro-N,N-dimethylbenzamide] yielded a Ki of 0.0448 µM. The result for `Clc1c(-c2ccc3[nH]nnc3c2)cnc2c1C1(CC=CC1)CN2` [Compound 276, 5′-(1H-Benzo[d][1,2,3]triazol-5-yl)-4′-chloro-1′,2′-dihydrospiro[cyclopentane-1,3′-pyrrolo[2,3-b]pyridin]-3-ene] reads 0.252 µM; that for `O=C1OCc2ccc(-c3cnc4c(c3)C3(CC3)CN4)cc21` [Compound 277, 6-(1′,2′-dihydrospiro[cyclopropane-1,3′-pyrrolo[2,3-b]pyridin]-5′-yl)isobenzofuran-1(3H)-one], 0.342 µM; that for `CCC1(O)C(=O)Nc2ccc(-c3cnc4c(c3)C3(CC3)CN4)cc21` (centres unmarked) [Compound 278, 5-(1′,2′-dihydrospiro[cyclopropane-1,3′-pyrrolo[2,3-b]pyridin]-5′-yl)-3-ethyl-3-hydroxyindolin-2-one], 0.281 µM. `CC1(C#N)C(=O)Nc2ccc(-c3cnc4c(c3)C3(CC3)CN4)cc21` (centres unmarked) [Compound 279, 5-(1′,2′-dihydrospiro[cyclopropane-1,3′-pyrrolo[2,3-b]pyridin]-5′-yl)-3-methyl-2-oxoindoline-3-carbonitrile] registered a Ki of 0.0418 µM. Compared with the last compound, the Ki is about 6.7-fold lower.

Turning to `O=C1Nc2ccc(-c3cnc4c(c3Cl)C3(CC3)CN4)cc2C1(O)C1CC1` (centres unmarked) [Compound 280, 5-(4′-chloro-1′,2′-dihydrospiro[cyclopropane-1,3′-pyrrolo[2,3-b]pyridin]-5′-yl)-3-cyclopropyl-3-hydroxyindolin-2-one], the affinity corresponds to a Ki of 0.179 µM. `CC1(C(N)=O)C(=O)Nc2ccc(-c3cnc4c(c3Cl)C3(CC3)CN4)cc21` (centres unmarked) [Compound 281, 5-(4′-chloro-1′,2′-dihydrospiro[cyclopropane-1,3′-pyrrolo[2,3-b]pyridin]-5′-yl)-3-methyl-2-oxoindoline-3-carboxamide]: the Ki came to 0.144 µM. In turn, `CC1(C#N)C(=O)Nc2ccc(-c3cnc4c(c3Cl)C3(CC3)CN4)cc21` (centres unmarked) [Compound 282, 5-(4′-chloro-1′,2′-dihydrospiro[cyclopropane-1,3′-pyrrolo[2,3-b]pyridin]-5′-yl)-3-methyl-2-oxoindoline-3-carbonitrile] came in with a Ki of 0.217 µM. This Ki lies about 1.5-fold higher than the previous one. `Clc1c(-c2cccc3[nH]ccc23)cnc2c1C1(CC=CC1)CN2` [Compound 284, 4-Chloro-5′-(1H-indol-4-yl)-1′,2′-dihydrospiro[cyclopentane-1,3′-pyrrolo[2,3-b]pyridin]-3-ene] yielded a Ki of 0.629 µM. The same measure for `Clc1c(-c2ccc3[nH]ncc3c2)cnc2c1C1(CC=CC1)CN2` [Compound 285, 4-Chloro-5′-(1H-indazol-5-yl)-1′,2′-dihydrospiro[cyclopentane-1,3′-pyrrolo[2,3-b]pyridin]-3-ene]: 0.375 µM.
